Where a name gives a salt, the structure may show the parent alone. Read-outs that look alike come from different tables or passages of the source.
How the values were obtained:
[1] = system: human three-dimensional culture epidermal model (LabCyte EPI-MODEL); assay: Production of skin irritation mediators induced by PMA in human three-dimensional epidermal culture model (Experiment 1); type: cell-based; conditions: for activity at 1 %: Homo sapiens, 48 h
From the text: Changes in production amounts of skin irritation mediators by test substances were examined when cutaneous irritants were caused to act on a human three-dimensional culture epidermal model.
(§1) A human three-dimensional epidermal culture model obtained by multilayer-culturing a human normal epidermal cell (LabCyte EPI-MODEL, manufactured by Japan Tissue Engineering Co., Ltd.) was used. LabCyte is a cultured skin cultured in a transwell. For the experiment, LabCyte was used with the transwell.
As test substances, there were used cholesterol (manufactured by Wako Pure Chemical Industries, Ltd.), β-sitosterol (manufactured by TAMA BIOCHEMICAL CO., LTD.), α-spinasterol (manufactured by ChromaDex, Inc.), ergosterol (manufactured by Wako Pure Chemical Industries, Ltd.), campesterol (manufactured by TAMA BIOCHEMICAL CO., LTD.), glycyrrhizin (manufactured by Wako Pure Chemical Industries, Ltd.), glycyrrhetinic acid (manufactured by Wako Pure Chemical Industries, Ltd.), ginsenoside (manufactured by Wako Pure Chemical Industries, Ltd.), squalene (manufactured by Wako Pure Chemical Industries, Ltd.), squalane (manufactured by Tokyo Chemical Industry Co., Ltd.) and lanosterol (manufactured by ChromaDex, Inc.), which are candidates of a skin irritation suppressant.
As skin irritants, Phorbol 12-Myristate 13-Acetate (PMA, manufactured by Wako Pure Chemical Industries, Ltd.) was used. In addition, as vehicle, olive oil (manufactured by Wako Pure Chemical Industries, Ltd.) was used.
Experiments were conducted by the following group composition. • PMA Only Group: A group with addition of only 0.00001 mol of PMA dispersed in a vehicle, as a test solution. • Test Substance Group: A group with addition of 0.00001 mol of PMA and the test substance which were dispersed in a vehicle, as a test solution.
(§2) The experiment was conducted as below. First, LabCyte was put into a 24-well assay plate. Then, 1 ml of assay medium (Japan Tissue Engineering Co., Ltd.) was added so that it was brought into contact with a bottom surface of the cultured skin in each well of the 24-well assay plate, and was pre-cultured in an incubator with 5% of carbon dioxide concentration at 37° C. for 1 hour.
Next, a cell survival rate was measured by the MTT method after causing the test solutions of each group to act. Specifically, 50 μL of the test solution of each group was added to the surface of the LabCyte after preculture, was cultured in the incubator with 5% of carbon dioxide concentration at 37° C. for 48 hours, then was transferred to the assay medium comprising 0.5 mg/ml of MTT reagent, and was cultured in the incubator with 5% of carbon oxide level at 37° C. for 3 hours. Then, LabCyte was immersed in 0.3 ml of an isopropanol solution, and the produced blue-purple formazan was extracted for 2 hours. After extraction, an absorbance at 570 nm was measured by a 96 microplate reader. The cell survival rate was calculated as below.
Cell survival rate (%)=(absorbance of Test Substance Group)/(absorbance of PMA Only Group)×100
Subsequently, a production amount of the skin irritation mediator at a test substance concentration with 80% or more of cell survival rate was measured. As skin irritation mediators, PGE2, IL-1α, IL-6, IL-8 were measured.
(§3) The test solutions of each group were added to the cells, the culture solutions incubated for 48 hours were collected, and a production amount of each skin irritation mediator was measured. The skin irritation mediator was measured by using a commercially available ELISA kit (manufactured by R&D Systems, Inc.). A relative production amount of the skin irritation mediator in each test substance was calculated as below, when the production amount of the skin irritation mediator in the PMA Only Group was set to 100.
Relative production amount=(production amount of the mediator in Test Substance Group)/(production amount of the mediator in PMA Only Group)×100

[2] = system: human three-dimensional culture epidermal model (LabCyte EPI-MODEL); assay: Suppression by cholesterol of skin irritation mediator production induced by drugs in a human epidermal cell (Experiment 2); type: cell-based
Experimental: as §1, §2, §3
Cholesterol was used as a test substance. The drugs shown in Table 2 were used as the cutaneous irritants.
Tests were conducted by the following group composition. • Drug Only Group: A group with addition of only the drug dispersed in a vehicle, as a test solution. Concentrations of the drugs are shown in Table 2. • Drug Plus Cholesterol Group: A group with addition of the drug and 1% by mass of cholesterol which were dispersed in a vehicle, as a test solution.
The experiment was conducted while other conditions were set in the same manner as in Experiment 1.

[3] = test substance 1 mass % with PMA in olive oil, 48 hours
[4] = Drug Plus Cholesterol Group: drug 8 × 10^−5 M plus 1% by mass of cholesterol
[5] = Drug Plus Cholesterol Group: drug 1 × 10^−3 M plus 1% by mass of cholesterol

## CC(C)[C@H](C)CC[C@@H](C)[C@H]1CC[C@H]2[C@@H]3CC=C4C[C@@H](O)CC[C@]4(C)[C@H]3CC[C@]12C [Campesterol, campesterol]
[1]
  Effect on skin irritation mediator production by PMA (in words): exhibited effects of suppressing the skin irritation mediator production by PMA
[1]; read-out: Relative Production Amount of Skin Irritation Mediator when Production Amount in PMA Only Group is Set to 100: IL-1α
  activity at 1 %: 53%
[1]; read-out: Relative Production Amount of Skin Irritation Mediator when Production Amount in PMA Only Group is Set to 100: IL-6
  activity at 1 %: 100%
[1]; read-out: Relative Production Amount of Skin Irritation Mediator when Production Amount in PMA Only Group is Set to 100: IL-8
  activity at 1 %: 106%
[1]; read-out: Relative Production Amount of Skin Irritation Mediator when Production Amount in PMA Only Group is Set to 100: PGE2
  activity at 1 %: 38%

## CC[C@H](CC[C@@H](C)[C@H]1CC[C@H]2[C@@H]3CC=C4C[C@@H](O)CC[C@]4(C)[C@H]3CC[C@]12C)C(C)C [β-sitosterol]
[1]; summary of Table 1
  Effect on skin irritation mediator production by PMA (in words): exhibited effects of suppressing the skin irritation mediator production by PMA
[1]; [3]
  Relative Production Amount of Skin Irritation Mediator when Production Amount in PMA Only Group is Set to 100: IL-1α: 101
  Relative Production Amount of Skin Irritation Mediator when Production Amount in PMA Only Group is Set to 100: IL-6: 100
  Relative Production Amount of Skin Irritation Mediator when Production Amount in PMA Only Group is Set to 100: IL-8: 34
  Relative Production Amount of Skin Irritation Mediator when Production Amount in PMA Only Group is Set to 100: PGE2: 44

## Cc1ccc(O)c([C@H](CCN(C(C)C)C(C)C)c2ccccc2)c1 [Tolterodine Tartrate]
[2]; [4]
  Relative Production Amount of Skin Irritation Mediator when Production Amount in Drug Only Group is Set to 100: IL-1α: 48
  Relative Production Amount of Skin Irritation Mediator when Production Amount in Drug Only Group is Set to 100: IL-6: 92
  Relative Production Amount of Skin Irritation Mediator when Production Amount in Drug Only Group is Set to 100: IL-8: 66
  Relative Production Amount of Skin Irritation Mediator when Production Amount in Drug Only Group is Set to 100: PGE2: 58

## CN(C)CCC[C@@]1(c2ccc(F)cc2)OCc2cc(C#N)ccc21.O=C(O)C(=O)O [(S)-citalopram Oxalate]
[2]; [5]
  Relative Production Amount of Skin Irritation Mediator when Production Amount in Drug Only Group is Set to 100: IL-1α: 61
  Relative Production Amount of Skin Irritation Mediator when Production Amount in Drug Only Group is Set to 100: IL-6: 85
  Relative Production Amount of Skin Irritation Mediator when Production Amount in Drug Only Group is Set to 100: IL-8: 64
  Relative Production Amount of Skin Irritation Mediator when Production Amount in Drug Only Group is Set to 100: PGE2: 46

## CC(C)NCC(O)COc1ccc(COCCOC(C)C)cc1 (stereo not shown) [Bisoprolol Fumarate]
[2]; [5]
  Relative Production Amount of Skin Irritation Mediator when Production Amount in Drug Only Group is Set to 100: IL-1α: 26
  Relative Production Amount of Skin Irritation Mediator when Production Amount in Drug Only Group is Set to 100: IL-6: 72
  Relative Production Amount of Skin Irritation Mediator when Production Amount in Drug Only Group is Set to 100: IL-8: 73
  Relative Production Amount of Skin Irritation Mediator when Production Amount in Drug Only Group is Set to 100: PGE2: 87

— US20130053357A1, “SKIN IRRITATION SUPPRESSANT AND TRANSDERMAL PREPARATION” (HISAMITSU PHARMACEUTICAL CO., INC., priority 2010, published 2013)
